Source: ChEMBL document CHEMBL1201862, “PubChem BioAssay data set” (2004)
Active and inactive are the calls of the source.

Legend:
[1] = molecular target: 1-phosphatidylinositol 4,5-bisphosphate phosphodiesterase gamma-1 (Homo sapiens, UniProt P19174); assay: Counterscreen for inhibitors of phospholipase C isozymes (PLC-B3): Fluorescence-based biochemical high throughput dose response assay to identify inhibitors of phospholipase C isozymes (PLC-gamma1).
[2] = molecular target: C-C chemokine receptor type 6 (Homo sapiens, UniProt P51684); assay: CCR6 receptor antagonists, dose response, cell-based, luminescent beta-arrestin readout (AID 504728); assay type: functional
[3] = molecular target: 1-phosphatidylinositol 4,5-bisphosphate phosphodiesterase beta-3 (Homo sapiens, UniProt Q01970); assay: Fluorescence-based biochemical high throughput dose response assay to identify inhibitors of phospholipase C isozymes (PLC-B3).
Beta-galactosidase = Beta-galactosidase (Escherichia coli, UniProt Q8VNN2); assay: beta-galactosidase enzyme inhibitors and activators, dose response, artefact control for CCR6 antagonist project, biochemical, E. coli enzyme, set 3 (AID 504712); assay type: functional
[4] = molecular target: T1, Apoptotic protease-activating factor 1 (Homo sapiens, UniProt O14727); assay type: functional
T1 sequence (O14727 whole entry): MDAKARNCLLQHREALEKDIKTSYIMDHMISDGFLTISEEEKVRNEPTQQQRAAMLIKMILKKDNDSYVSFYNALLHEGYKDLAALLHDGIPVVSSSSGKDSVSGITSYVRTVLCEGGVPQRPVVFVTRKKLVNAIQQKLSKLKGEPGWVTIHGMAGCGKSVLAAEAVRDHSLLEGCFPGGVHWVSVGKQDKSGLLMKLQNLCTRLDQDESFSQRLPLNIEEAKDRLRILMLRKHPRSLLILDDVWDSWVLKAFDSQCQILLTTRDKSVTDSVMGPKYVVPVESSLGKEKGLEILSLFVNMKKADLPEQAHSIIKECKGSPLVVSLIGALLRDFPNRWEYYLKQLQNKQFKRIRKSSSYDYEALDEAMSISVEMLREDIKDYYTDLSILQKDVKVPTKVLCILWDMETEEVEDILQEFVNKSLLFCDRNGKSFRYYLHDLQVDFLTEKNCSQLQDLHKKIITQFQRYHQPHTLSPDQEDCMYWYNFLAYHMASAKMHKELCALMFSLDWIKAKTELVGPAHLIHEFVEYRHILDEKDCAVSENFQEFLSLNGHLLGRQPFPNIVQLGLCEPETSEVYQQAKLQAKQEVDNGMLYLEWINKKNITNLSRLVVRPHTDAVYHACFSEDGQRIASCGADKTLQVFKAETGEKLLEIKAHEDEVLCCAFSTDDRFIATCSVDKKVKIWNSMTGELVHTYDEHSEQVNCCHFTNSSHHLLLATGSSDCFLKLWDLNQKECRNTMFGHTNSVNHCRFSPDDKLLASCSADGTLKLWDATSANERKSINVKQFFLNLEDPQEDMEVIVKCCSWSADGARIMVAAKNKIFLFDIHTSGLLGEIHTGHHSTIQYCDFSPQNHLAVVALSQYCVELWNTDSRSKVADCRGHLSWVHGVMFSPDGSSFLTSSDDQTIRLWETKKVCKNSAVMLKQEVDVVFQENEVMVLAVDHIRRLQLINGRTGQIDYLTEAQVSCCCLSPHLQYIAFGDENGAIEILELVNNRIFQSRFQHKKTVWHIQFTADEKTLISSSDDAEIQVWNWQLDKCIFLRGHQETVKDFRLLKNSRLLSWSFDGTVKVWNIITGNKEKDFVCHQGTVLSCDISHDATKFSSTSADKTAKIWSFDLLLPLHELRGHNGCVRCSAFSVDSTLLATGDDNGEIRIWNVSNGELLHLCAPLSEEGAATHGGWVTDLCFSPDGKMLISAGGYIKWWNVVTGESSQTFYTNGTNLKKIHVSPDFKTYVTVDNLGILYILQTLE

[5] = THP-1 cell cytotoxicity, dose response, cytotoxicity control for Vif-APOBEC3G degradation inhibitor project, THP-1 cells (AID 1117359); assay type: functional; settings: Human immunodeficiency virus 1, THP-1
[6] = molecular target: Polyadenylate-binding protein 1 (Homo sapiens, UniProt P11940); assay: PABP inhibition in translation initiation, SAR follow-up (AID 435018); assay type: functional
[7] = molecular target: Eukaryotic translation initiation factor 4H (Homo sapiens, UniProt Q15056); assay: eIF4H inhibition in translation initiation, SAR follow-up (AID 435011); assay type: functional
[8] = Luminescence Cell-Based Dose Retest to Confirm Inhibitors of Cancer Stem Cells. [Related pubchem assays (depositor defined):AID2717, AID2721]; assay type: functional; settings: Homo sapiens
INS1 = assay: beta cell apoptosis inhibitors, cytokine rescue, dose response, luminescence, retest (AID 449756); assay type: functional, cell-based; settings: Rattus norvegicus;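 note: cell death triggered by IL-1 beta plus TNF-alpha plus IFN-gamma mixture; protective hits raise ATP signal compared with cytokine alone wells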
[9] = M. tuberculosis H37Rv growth inhibitors, H37Rv strain (AID 1626); assay type: functional
[10] = molecular target: Envelope glycoprotein gp160 (Human immunodeficiency virus 1, UniProt Q6QLK5); assay: inhibitors of HIV fusion peptide binding, primary screen, biochemical, uHTS, fluorescence dequenching (AID 1986)
[11] = molecular target: Cystic fibrosis transmembrane conductance regulator/Golgi-associated PDZ and coiled-coil motif-containing protein (Homo sapiens, UniProt P13569+Q9HD26); assay: CAL PDZ peptide-binding inhibitors, dose response, biochemical, fluorescence polarization, Cerulean-tagged CAL PDZ, cherry-picks (AID 504773)
HeLa = assay: HeLa cell cytotoxicity, dose response, cytotoxicity control, 24 h, cherry-picked samples (AID 504726); assay type: functional, cell-based; settings: Homo sapiens;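 note: potency for cytotoxicity as loss of luminescence signal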
Paired box protein Pax-8 = Paired box protein Pax-8 (Homo sapiens, UniProt Q06710); assay: inhibitors of PAX8-driven TPO luciferase reporter, dose response, RMG-I cells, cherry-pick (AID 687027); assay type: functional, cell-based;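 note: luciferase reporter driven by Pax8 target thyroperoxidase promoter measured by SteadyGlo luminescence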
Insulin-degrading enzyme [12] = molecular target: T2, Insulin-degrading enzyme (Homo sapiens, UniProt P14735); assay: activators of recombinant IDE enzyme, dose response, counter-screen for IDE activator project, biochemical, fluorescence polarization (AID 588681)
T2 sequence (P14735 whole entry): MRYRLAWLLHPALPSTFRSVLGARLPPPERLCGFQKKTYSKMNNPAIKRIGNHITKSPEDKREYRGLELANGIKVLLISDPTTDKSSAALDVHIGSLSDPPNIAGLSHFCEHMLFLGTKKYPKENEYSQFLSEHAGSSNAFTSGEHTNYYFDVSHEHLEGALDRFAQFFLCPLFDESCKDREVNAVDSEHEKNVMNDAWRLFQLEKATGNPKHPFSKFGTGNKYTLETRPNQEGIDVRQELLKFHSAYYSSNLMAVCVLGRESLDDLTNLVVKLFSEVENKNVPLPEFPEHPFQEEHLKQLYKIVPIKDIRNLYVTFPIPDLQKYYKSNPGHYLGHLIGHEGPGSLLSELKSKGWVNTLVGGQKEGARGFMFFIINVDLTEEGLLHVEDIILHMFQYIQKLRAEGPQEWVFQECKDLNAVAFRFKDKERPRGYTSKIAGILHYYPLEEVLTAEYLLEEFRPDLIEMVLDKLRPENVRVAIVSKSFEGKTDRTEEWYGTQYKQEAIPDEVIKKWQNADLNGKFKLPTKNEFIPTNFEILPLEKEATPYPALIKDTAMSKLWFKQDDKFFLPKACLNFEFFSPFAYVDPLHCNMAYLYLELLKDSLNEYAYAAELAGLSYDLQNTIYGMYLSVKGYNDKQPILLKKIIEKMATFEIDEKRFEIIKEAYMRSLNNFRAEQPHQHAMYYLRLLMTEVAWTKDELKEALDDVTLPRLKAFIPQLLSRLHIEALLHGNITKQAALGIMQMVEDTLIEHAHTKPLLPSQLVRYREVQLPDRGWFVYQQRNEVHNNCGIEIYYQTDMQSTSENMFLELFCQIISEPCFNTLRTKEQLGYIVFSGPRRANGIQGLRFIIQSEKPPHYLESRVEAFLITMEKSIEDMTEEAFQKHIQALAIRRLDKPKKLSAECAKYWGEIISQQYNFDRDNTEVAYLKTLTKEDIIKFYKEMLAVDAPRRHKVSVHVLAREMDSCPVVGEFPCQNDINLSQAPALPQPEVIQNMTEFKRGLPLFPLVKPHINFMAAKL

[13] = molecular target: Glutathione-S-transferase (Schistosoma japonicum, UniProt Q26513); assay: biotin-GST/anti-GST TR-FRET signal inhibitors, dose response, artefact control for Vif-APOBEC3G degradation inhibitor project, biochemical (AID 1117362); assay type: functional
Insulin-degrading enzyme [14] = molecular target: T2, Insulin-degrading enzyme; assay: activators of endogenous IDE in HEK cells, dose response, cell-based, fluorescence polarization (AID 588439); assay type: functional
HEK293 [15] = assay: optical interference in Abeta FP readout, dose response, artefact control for IDE activator project, biochemical, fluorescence polarization (AID 588442); assay type: functional, cell-based; settings: Homo sapiens
ORF 73 = ORF 73 (Human herpesvirus 8, UniProt O40947); assay: inhibitors of C-LANA binding to LBS DNA, dose response, biochemical, fluorescence polarization, cherry-picked samples (AID 504725); parameters: species or system Human gammaherpesvirus 8;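 note: fluorescence polarization of a labeled DNA duplex reporting LANA DNA binding; potency is for inhibitors that block LANA binding to the DNA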
HEK293 [16] = assay: HEK cell cytotoxicity by LDH release, dose response, cytotoxicity control for IDE activator project, fluorescence, HEK cells (AID 588440); assay type: functional, cell-based; settings: Homo sapiens;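 note: cytotoxicity by LDH release measuring loss of membrane integrity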
[17] = molecular target: Intestinal-type alkaline phosphatase (Homo sapiens, UniProt P09923); assay: Dose Response confirmation of uHTS hits from a small molecule inhibitors of human intestinal alkaline phosphatase via a luminescent assay. [Related pubchem assays (depositor defined):AID2544, AID2574]; assay type: functional
[18] = molecular target: T3, Dual specificity protein phosphatase 3 (Homo sapiens, UniProt P51452); assay: SAR VHR1 Fluorescent Assay for In Vitro dose response studies. [Related pubchem assays (depositor defined):AID1654, AID1661, AID1878, AID1992, AID2004, AID2070, AID2085]; assay type: functional
[19] = molecular target: T4, Tyrosine-protein phosphatase non-receptor type 7 (Homo sapiens, UniProt P35236); assay: redox-dependent HePTP inhibition, mechanism study, biochemical, fluorescence (AID 2068); assay type: functional
T4 sequence (P35236 whole entry): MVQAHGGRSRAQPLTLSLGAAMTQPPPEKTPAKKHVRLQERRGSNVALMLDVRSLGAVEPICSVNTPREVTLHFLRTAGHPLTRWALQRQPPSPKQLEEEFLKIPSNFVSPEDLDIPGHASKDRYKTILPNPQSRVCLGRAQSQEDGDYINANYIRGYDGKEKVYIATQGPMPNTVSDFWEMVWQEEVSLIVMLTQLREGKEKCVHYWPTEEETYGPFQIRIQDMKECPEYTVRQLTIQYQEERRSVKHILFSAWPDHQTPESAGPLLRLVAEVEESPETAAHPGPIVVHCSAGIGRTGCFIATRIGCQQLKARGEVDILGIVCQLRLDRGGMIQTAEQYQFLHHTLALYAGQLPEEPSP

[20] = molecular target: T3, Dual specificity protein phosphatase 3; assay: MOA VHR1 Fluorescent secondary assay for identification of redox-state modulating compounds. [Related pubchem assays (depositor defined):AID1654, AID1661, AID1878, AID1957]
[21] = molecular target: T5, Dual specificity protein phosphatase 6 (Rattus norvegicus, UniProt Q64346)
T5 sequence (Q64346 whole entry): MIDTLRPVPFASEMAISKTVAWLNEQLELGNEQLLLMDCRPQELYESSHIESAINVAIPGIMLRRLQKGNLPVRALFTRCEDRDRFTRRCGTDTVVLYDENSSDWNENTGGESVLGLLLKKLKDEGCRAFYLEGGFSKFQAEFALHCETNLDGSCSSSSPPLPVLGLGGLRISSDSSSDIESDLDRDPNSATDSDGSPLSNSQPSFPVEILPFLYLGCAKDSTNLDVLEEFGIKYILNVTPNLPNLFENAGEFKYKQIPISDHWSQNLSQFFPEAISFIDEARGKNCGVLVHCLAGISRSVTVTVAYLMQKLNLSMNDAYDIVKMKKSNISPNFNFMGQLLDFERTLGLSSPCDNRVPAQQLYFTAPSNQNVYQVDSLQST

[22] = molecular target: T5, Dual specificity protein phosphatase 6; assay type: functional
[23] = molecular target: Glyceraldehyde-3-phosphate dehydrogenase (Homo sapiens, UniProt P04406)
[24] = molecular target: T4, Tyrosine-protein phosphatase non-receptor type 7; assay type: functional

T3 sequence (P51452 whole entry): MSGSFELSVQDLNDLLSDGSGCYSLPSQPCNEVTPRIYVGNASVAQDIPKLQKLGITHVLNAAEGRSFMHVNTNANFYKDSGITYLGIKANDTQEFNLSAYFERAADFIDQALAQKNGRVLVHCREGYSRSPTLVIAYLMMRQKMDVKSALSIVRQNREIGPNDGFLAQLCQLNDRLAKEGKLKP
Chain of Beta-galactosidase (Q8VNN2 whole entry): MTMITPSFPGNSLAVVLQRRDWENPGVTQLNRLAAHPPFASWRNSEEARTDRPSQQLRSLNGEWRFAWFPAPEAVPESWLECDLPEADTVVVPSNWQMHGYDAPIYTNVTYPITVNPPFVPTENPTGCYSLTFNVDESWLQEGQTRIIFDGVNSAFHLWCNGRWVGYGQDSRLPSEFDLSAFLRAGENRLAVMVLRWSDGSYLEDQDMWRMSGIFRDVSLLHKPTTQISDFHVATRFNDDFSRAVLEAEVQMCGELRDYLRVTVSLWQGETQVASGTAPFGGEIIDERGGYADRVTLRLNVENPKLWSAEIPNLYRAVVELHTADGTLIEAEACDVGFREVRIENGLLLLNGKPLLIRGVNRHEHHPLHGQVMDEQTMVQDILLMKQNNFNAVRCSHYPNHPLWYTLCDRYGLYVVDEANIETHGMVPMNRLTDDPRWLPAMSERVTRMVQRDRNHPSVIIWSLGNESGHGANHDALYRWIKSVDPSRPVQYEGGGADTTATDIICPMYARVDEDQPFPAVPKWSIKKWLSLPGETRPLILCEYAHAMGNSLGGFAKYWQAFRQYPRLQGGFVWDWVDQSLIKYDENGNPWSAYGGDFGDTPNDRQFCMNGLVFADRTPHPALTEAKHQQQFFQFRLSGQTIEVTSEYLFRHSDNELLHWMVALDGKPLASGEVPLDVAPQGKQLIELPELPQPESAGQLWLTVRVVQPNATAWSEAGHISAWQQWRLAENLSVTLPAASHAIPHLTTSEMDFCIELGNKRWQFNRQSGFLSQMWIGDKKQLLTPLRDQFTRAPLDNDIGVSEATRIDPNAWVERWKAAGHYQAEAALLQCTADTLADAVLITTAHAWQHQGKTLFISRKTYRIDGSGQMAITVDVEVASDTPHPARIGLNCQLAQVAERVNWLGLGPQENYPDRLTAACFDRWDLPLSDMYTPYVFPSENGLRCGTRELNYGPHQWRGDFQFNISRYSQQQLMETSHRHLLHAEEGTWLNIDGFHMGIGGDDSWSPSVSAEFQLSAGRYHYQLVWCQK
Chain of 1-phosphatidylinositol 4,5-bisphosphate phosphodiesterase beta-3 (Q01970 whole entry): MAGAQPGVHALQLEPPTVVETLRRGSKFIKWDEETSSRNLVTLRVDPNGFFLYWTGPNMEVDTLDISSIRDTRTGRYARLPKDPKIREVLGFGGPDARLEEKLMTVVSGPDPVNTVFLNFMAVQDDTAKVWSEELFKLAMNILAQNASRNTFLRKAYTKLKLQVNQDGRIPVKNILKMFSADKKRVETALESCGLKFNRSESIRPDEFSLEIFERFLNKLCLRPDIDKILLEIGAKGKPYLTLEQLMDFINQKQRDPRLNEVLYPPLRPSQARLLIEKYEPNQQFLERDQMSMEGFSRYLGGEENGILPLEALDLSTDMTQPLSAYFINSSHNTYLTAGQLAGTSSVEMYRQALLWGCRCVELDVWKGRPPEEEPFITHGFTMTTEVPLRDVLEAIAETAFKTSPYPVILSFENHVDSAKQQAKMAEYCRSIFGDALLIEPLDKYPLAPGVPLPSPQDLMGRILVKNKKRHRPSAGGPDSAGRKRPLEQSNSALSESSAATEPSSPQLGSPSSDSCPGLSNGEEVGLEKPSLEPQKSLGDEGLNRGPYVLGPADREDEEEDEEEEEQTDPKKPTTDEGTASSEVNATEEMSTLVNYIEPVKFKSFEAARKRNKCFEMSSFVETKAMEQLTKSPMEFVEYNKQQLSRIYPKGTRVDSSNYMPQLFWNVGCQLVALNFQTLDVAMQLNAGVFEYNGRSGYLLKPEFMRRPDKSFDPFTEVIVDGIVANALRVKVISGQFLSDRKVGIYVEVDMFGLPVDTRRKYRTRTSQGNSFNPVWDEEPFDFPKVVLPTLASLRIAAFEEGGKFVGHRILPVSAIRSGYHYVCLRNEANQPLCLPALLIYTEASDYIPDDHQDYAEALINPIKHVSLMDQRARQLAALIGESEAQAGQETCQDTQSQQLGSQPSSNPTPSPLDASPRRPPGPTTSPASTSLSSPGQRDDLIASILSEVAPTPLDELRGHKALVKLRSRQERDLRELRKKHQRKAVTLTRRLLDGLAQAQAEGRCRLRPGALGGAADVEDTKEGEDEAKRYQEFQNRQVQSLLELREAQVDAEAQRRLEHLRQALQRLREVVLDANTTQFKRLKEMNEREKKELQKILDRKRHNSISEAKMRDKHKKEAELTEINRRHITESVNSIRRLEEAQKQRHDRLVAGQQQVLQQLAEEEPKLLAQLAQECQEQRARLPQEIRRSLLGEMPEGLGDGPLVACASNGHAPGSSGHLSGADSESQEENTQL
Chain of Glutathione-S-transferase (Q26513 whole entry): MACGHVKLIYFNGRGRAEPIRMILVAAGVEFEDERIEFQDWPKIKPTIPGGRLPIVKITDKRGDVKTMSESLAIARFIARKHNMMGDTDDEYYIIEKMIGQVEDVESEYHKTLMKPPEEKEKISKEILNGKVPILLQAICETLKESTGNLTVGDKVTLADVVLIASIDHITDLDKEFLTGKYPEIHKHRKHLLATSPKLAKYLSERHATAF
Chain of Envelope glycoprotein gp160 (Q6QLK5 whole entry, the tested form may be a part): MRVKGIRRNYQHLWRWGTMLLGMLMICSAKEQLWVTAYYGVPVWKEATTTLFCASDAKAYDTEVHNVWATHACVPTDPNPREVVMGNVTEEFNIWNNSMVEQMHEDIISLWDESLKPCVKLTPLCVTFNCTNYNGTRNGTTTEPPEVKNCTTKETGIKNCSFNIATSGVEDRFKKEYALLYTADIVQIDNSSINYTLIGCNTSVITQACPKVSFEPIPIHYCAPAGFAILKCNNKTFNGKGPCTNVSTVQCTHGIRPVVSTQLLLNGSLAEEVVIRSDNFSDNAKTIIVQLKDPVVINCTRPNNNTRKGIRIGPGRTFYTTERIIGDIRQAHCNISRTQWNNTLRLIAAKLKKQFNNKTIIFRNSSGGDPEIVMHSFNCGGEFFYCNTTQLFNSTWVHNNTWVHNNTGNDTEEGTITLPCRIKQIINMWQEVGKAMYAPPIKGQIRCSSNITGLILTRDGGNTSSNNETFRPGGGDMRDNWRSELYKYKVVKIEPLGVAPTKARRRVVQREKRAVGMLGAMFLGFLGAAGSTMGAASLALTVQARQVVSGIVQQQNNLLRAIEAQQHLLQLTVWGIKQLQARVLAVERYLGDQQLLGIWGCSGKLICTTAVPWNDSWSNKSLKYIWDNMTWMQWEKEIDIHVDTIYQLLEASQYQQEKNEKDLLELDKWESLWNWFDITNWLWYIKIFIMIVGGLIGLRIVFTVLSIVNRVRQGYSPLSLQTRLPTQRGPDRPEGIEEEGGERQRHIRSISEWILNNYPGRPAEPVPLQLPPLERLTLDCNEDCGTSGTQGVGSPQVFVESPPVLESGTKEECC
Chain of Cystic fibrosis transmembrane conductance regulator/Golgi-associated PDZ and coiled-coil motif-containing protein (P13569 whole entry, other chains not shown): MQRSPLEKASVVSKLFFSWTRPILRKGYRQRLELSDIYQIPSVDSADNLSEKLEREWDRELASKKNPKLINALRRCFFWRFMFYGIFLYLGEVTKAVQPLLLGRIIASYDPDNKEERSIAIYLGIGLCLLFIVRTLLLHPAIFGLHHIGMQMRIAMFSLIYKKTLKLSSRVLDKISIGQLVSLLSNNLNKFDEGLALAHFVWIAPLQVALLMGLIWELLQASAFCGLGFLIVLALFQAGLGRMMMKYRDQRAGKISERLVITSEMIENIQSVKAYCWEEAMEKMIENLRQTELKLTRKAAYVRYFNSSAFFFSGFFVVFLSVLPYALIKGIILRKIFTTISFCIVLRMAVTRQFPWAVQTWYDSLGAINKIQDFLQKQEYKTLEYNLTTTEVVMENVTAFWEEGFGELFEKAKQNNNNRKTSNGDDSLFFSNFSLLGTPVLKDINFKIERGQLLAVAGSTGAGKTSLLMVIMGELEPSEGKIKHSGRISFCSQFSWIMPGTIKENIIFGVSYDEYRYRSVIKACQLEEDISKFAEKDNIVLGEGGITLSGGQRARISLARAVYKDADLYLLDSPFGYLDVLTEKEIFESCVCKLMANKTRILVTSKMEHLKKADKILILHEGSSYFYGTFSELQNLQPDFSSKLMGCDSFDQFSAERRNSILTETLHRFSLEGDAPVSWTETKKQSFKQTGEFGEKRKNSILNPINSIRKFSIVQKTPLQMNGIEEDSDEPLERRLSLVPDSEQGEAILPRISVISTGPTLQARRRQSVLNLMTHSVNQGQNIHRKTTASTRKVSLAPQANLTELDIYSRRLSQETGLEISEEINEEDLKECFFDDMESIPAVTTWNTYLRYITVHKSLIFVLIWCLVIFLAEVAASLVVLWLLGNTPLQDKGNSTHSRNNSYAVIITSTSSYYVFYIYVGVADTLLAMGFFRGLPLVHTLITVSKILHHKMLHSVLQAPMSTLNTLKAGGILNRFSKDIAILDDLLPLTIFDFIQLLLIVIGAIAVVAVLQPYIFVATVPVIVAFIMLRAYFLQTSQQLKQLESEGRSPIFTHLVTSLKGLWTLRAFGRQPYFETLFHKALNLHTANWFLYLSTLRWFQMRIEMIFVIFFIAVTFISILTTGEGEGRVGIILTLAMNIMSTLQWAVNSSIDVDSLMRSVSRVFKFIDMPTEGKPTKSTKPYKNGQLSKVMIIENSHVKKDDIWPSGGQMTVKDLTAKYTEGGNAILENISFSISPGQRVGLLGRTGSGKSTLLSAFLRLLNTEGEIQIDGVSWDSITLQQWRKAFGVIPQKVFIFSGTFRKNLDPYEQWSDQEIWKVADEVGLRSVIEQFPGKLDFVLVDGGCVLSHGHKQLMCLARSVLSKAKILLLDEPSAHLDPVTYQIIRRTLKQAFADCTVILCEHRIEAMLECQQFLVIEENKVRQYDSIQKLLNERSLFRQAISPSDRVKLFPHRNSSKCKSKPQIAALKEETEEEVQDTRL

FC(F)(F)C1=Nc2cccc3cccc(c23)N1
inactive: IC50 [1] 56.6 µM | IC50 [2] 23.8 µM | IC50 [3] 102 µM | IC50 (Beta-galactosidase) > 66.6 µM
active: IC50 [4] 12.1 µM | CC50 [5] 11.5 µM

COc1cc(C=NNC(=O)c2ccccc2O)ccc1OCC(=O)Nc1ccccc1
active: IC50 [6] 52.6 µM | IC50 [7] 2.41 µM

O=S(=O)(Nc1nc2ccccc2nc1Nc1ccc(N2CCOCC2)cc1)c1cc(Cl)ccc1Cl
active: AC50 [8] 4.38 µM | AC50 (INS1) 5.91 µM | IC50 [9] > 100 µM
inactive: IC50 [10] > 99 µM

COC(=O)c1ccccc1-c1c2ccc(=N)cc-2oc2cc(N)ccc12
active: AC50 [11] 3.6 µM | AC50 (HeLa) 34 µM | AC50 (Paired box protein Pax-8) 1.41 µM | IC50 [13] 9.91 µM | CC50 [5] 5.49 µM | EC50 (HEK293 [15]) 0.045 µM | AC50 (ORF 73) < 0.015 µM
inactive: EC50 (Insulin-degrading enzyme [12]) > 54.7 µM | EC50 (Insulin-degrading enzyme [14]) > 54.7 µM | IC50 (HEK293 [16]) > 89.2 µM | IC50 [17] > 100 µM

Cc1cc(C)c2nc3s/c(=C\c4ccc(-c5ccccc5C(=O)O)o4)c(=O)n3c2c1
active: IC50 [18] 5.82 µM | IC50 [19] 0.805 µM | IC50 [20] 0.68 µM | IC50 [21] 13.8 µM | IC50 [22] 15.6 µM | IC50 [23] 87.1 µM | IC50 [24] 2.4 µM
